In paper PMC9283466, “In silico identification of two peptides with antibacterial activity against multidrug-resistant Staphylococcus aureus” (NPJ Biofilms and Microbiomes, 2022):
Bridge positions count the residues as written; N and C are the ends. Peptide text beside a SMILES is read from it.

Tests used:
[1] = system: LPS-driven NF-kB activation, eLUCidate Raw 264.7 NF-kB reporter cell line; experiment: Anti-inflammatory activity, NF-kB luciferase reporter; format: cell-based, murine; conditions: 10 ng/ml LPS from E. coli, 6 h
Protocol: (§1) The inhibitory activity of HG2, HG4 and comparator compounds against LPS and LTA was assessed using eLUCidate™ Raw 264.7 NF-kB reporter cell line (AMSBIO) as previously described. The eLUCidate NF-kB reporter cell line is a stably transfected Raw 264.7 cell line which expresses the Renilla luciferase reporter gene under the transcriptional control of the NF-kB response element, a key transcription factor involved in immune and inflammatory responses. This reporter cell line has been used to measure the induction of various toll-like receptors (TLR) by ligands, including LPS and LTA, therefore providing an effective way to evaluate inhibitors of their activations. Briefly, cells were grown and maintained following the manufacturer’s instructions in Dulbecco’s modified essential medium (DMEM) supplemented with 10% fetal calf serum (FCS), 1% L-glutamine, 1% antibiotics (Invitrogen) and containing 3 µg/ml of puromycin (Sigma-Aldrich, UK). To test the inhibitory activity of HG2 and HG4 on LPS or LTA-driven NF-kB activation, eLUCidate™ Raw 264.7 cells grown on 75 cm^2 flasks were detached using trypsin-EDTA solution (Thermofisher, UK) and seeded into 96-well cell culture plates (Greiner Bio-one, UK) at ~25,000 cells per well (counted using Mallasez’s chamber). The next day, wells were emptied, and cells were exposed to optimal concentrations of LPS or LTA determined from preliminary experiments, (i.e. 10 ng/ml of LPS from E. coli or 10 µg/ml of LTA from S. aureus (Invivogen, UK)) in the presence of increasing concentrations of HG2 or HG4 (from 0 to 500 µg/ml, serial 1:2 dilutions). Pyrrolidine dithiocarbamate (PDTC, 100 µM) and polymyxin B (PMB, 100 µM) (Sigma-Aldrich, UK) were used as positive controls based on their well-known activity as anti-inflammatory molecules and blockers/neutralisers of LPS and LTA, respectively. Importantly, all steps were performed using non-pyrogenic plastics and RNase/DNase molecular biology tips to limit the risk of the presence of a trace of LPS/LTA. After 6 h incubation at 37 °C and 5% CO2, wells were emptied, and the cells were treated with 70 µl of ice-cold PBS containing 1% Triton X-100. After 10 min incubation on ice under orbital shaking at 200 rpm, 50 µL of cell lysates were collected and transferred into white 96-well luminescence plates (Dominique Dutscher) already containing 100 µL of Renilla luciferase substrate (Yelen, France). Luminescence signals of the wells were immediately measured using a microplate reader (Biotek Synergy Mx, UK). The luminescence values were expressed as a percentage of control inflammation corresponding to values obtained after treatment with LPS or LTA in the absence of an inhibitor. The IC50 values of PDTC, PMB, HG2 or HG4 on LPS or LTA-mediated inflammation (i.e. the concentration of molecule causing a reduction of 50% of the luciferase’s induction caused by LPS or LTA) were calculated using GraphPad® Prism 7 software.

[2] = system: LTA-driven NF-kB activation, eLUCidate Raw 264.7 NF-kB reporter cell line; experiment: as above; format: cell-based, murine; conditions: 10 µg/ml LTA from S. aureus, 6 h
Protocol: as §1

[3] = system: MRSA USA300 biofilms; experiment: Anti-biofilm activity, 96-well biofilm model (crystal violet); format: cell-based, Staphylococcus aureus; conditions: established MRSA USA300 biofilms; for reduction in biofilm formation: sub-MIC (0.25x and 0.5 x MIC) and MIC concentrations; for biofilm reduction: supra-MIC concentrations (2x and 4x MIC)
Protocol: The ability of HG2 and HG4 to disrupt established S. aureus biofilms was measured using a 96-well format as described by ref. [14]. MRSA USA300 cultures grown overnight in Brain Heart Infusion (BHI) broth was resuspended to OD600nm = 0.02 and grown without aeration at 37 °C in 96-well tissue culture plates for an additional 24 h. The planktonic cells were removed by three PBS (phosphate-buffered saline) washes. Thereafter, fresh BHI broth containing peptides HG2 or HG4 at sub- and supra-MIC concentrations (0.5, 1, 2 and 4x MIC) was added to wells containing adherent cells and incubated without shaking for another 24 h. Planktonic cells were again removed by three PBS washes. Biofilms were fixed with methanol for 20 min, stained with 0.4% (w/v) crystal violet solution for 20 min and re-solubilised with 33% (v/v) acetic acid. The optical density of re-solubilised biofilms was measured at 570 nm in a microplate spectrophotometer. The percentage biofilm reduction was calculated using the equation below: Percentagebiofilmreduction(%)=PositiveControl−ODofSample/PositiveControl−NegativeControl The plot showing anti-biofilm activity (% biofilm reduction) was generated using the ‘ggplot2’ package[53] in R (v 4.1.1)[54] with log-linear regression performed using lm() function.

| Compound | IC50, LPS-mediated inflammation [1] | IC50, LTA-mediated inflammation [2] | reduction in biofilm formation [3] | biofilm reduction [3] |
| --- | --- | --- | --- | --- |
| CC[C@H](C)[C@H](NC(=O)[C@H](CC(C)C)NC(=O)[C@H](CC(C)C)NC(=O)[C@H](CC(C)C)NC(=O)[C@H](CCCCN)NC(=O)[C@H](CCCCN)NC(=O)[C@@H](N)CCSC)C(=O)N[C@@H](CC(C)C)C(=O)N[C@@H](Cc1ccccc1)C(=O)N[C@H]1CSSC[C@@H](C(=O)N[C@@H](CCCCN)C(=O)N[C@@H](CCCCN)C(=O)N[C@@H](C)C(=O)N2CCC[C@H]2C(N)=O)NC(=O)CNC(=O)[C@H](C)NC(=O)[C@H](CC(C)C)NC(=O)[C@H](C)NC(=O)[C@H](CC(C)C)NC(=O)[C@H](C)NC(=O)[C@H](CC(C)C)NC1=O [HG2] (H-MKKLLLILFCLALALAGCKKAP-NH2; disulfide 10-18; N-terminus assumed) | 73.99 ± 3.40 µg/mL | 91.49 ± 6.03 µg/mL | less than 50% | ≥ 50% |
| CC[C@H](C)[C@H](NC(=O)[C@H](CC(C)C)NC(=O)[C@H](CC(C)C)NC(=O)[C@H](C)NC(=O)CNC(=O)CNC(=O)[C@@H](NC(=O)[C@@H](NC(=O)[C@H](CC(C)C)NC(=O)[C@H](C)NC(=O)[C@H](CC(C)C)NC(=O)CNC(=O)[C@H](CC(C)C)NC(=O)[C@@H](N)C(C)C)[C@@H](C)CC)C(C)C)C(=O)N[C@@H](CCCCN)C(=O)N[C@@H](CCCCN)C(=O)N[C@@H](CCCCN)C(=O)N[C@@H](CCC(N)=O)C(=O)N[C@@H](C)C(=O)N[C@@H](CCCCN)C(=O)N[C@@H](CO)C(N)=O [HG4] (H-VLGLALIVGGALLIKKKQAKS-NH2; N-terminus and C-terminus assumed) | 113.80 ± 5.00 µg/mL | 26.45 ± 3.11 µg/mL | less than 50% | ≥ 50% |
